According to patent US9409952B2, “Peptide-compound cyclization method” (Chugai Seiyaku Kabushiki Kaisha, priority 2011, dated 2016):
Positions of bridges follow the written chain, without caps; N, C: chain ends. Non-standard residues stand in square brackets, D forms with d. Residues, ends and D or L forms follow the SMILES beside them. *: point of attachment. hhPhe = N[C@@H](CCCc1ccccc1)C(=O)O; NMeF = CN[C@@H](Cc1ccccc1)C(=O)O; hPhe = N[C@@H](CCc1ccccc1)C(=O)O; NMeL = CN[C@@H](CC(C)C)C(=O)O; NMeV = CN[C@H](C(=O)O)C(C)C; NMeA = CN[C@@H](C)C(=O)O; Piperidide = C1CCN(*)CC1; dNMeA = CN[C@H](C)C(=O)O; Sar = CNCC(=O)O; tBu = CC(C)(C)*

Columns and labels:
[1] = PAMPA (parallel artificial membrane permeability assay); format: in vitro ADME; conditions: PAMPA; membrane permeation rate (Pe); 50 mM MOPSO buffer pH 6.5 with 5.0% glycocholic acid, 37° C., 18 hours; read-out: iPAMPA Pe
How it was run: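 Artificial membrane was 10% (w/v) egg lecithin plus 0.5% (w/v) cholesterol in dodecane on a PVDF filter. A 10 mM DMSO stock was added at 0.5% (v/v) to donor buffer (50 mM MOPSO, pH 6.5, 5.0% glycocholic acid). After 18 h at 37 °C, LC/MS or LC/UV gave donor and acceptor levels for Pe.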

[2] = Metabolic stability in human hepatic microsome; format: in vitro ADME; conditions: microsomes, pH 7.4; human hepatic microsome, NADPH(+); read-out: CL NADPH(+)

Compound	Papp at 18 hours, 50 µM [1] [nm/s]	microsomal CLint at 1 uM [2] [µL/min/mg]
CC(C)C[C@H]1C(=O)N[C@H](C(=O)N2CCCCC2)CC(=O)N(C)[C@H](C)C(=O)N(C)[C@@H](CC(C)C)C(=O)N[C@@H]([C@@H](C)O)C(=O)N(C)[C@@H](CC(C)C)C(=O)N[C@@H](COC(C)(C)C)C(=O)N1C [DP-725] ([dNMeA][NMeL]T[NMeL]S(tBu)[NMeL]D-Piperidide; lactam N-7)	350	138
CC(C)C[C@@H]1NC(=O)C[C@@H](C(=O)N2CCCCC2)NC(=O)[C@H](CC(C)C)N(C)C(=O)[C@H](CC(C)C)NC(=O)[C@H](CC(C)C)N(C)C(=O)[C@H]([C@@H](C)O)NC(=O)CN(C)C1=O [DP-726] (L[Sar]T[NMeL]L[NMeL]D-Piperidide; lactam N-7)	170	75
CC(C)C[C@@H]1NC(=O)[C@H](C(C)C)NC(=O)C[C@@H](C(=O)N2CCCCC2)NC(=O)[C@H]([C@@H](C)O)NC(=O)CN(C)C(=O)[C@H](CC(C)C)N(C)C(=O)[C@H](CC(C)C)N(C)C1=O [DP-727] (VL[NMeL][NMeL][Sar]TD-Piperidide; lactam N-7)	160	59
CC[C@H](C)[C@@H]1NC(=O)[C@H](CC(C)C)NC(=O)[C@H](C(C)C)NC(=O)[C@H](CC(C)C)N(C)C(=O)[C@H](CC(C)C)NC(=O)[C@H](CCc2ccccc2)NC(=O)[C@H]([C@@H](C)O)NC(=O)[C@H](C)N(C)C(=O)[C@H](CC(C)C)NC(=O)[C@H](C)N(C)C(=O)C[C@@H](C(=O)N2CCCCC2)NC1=O [DP-728] ([NMeA]L[NMeA]T[hPhe]L[NMeL]VLID-Piperidide; lactam N-11)	65	42
CC[C@H](C)[C@@H]1NC(=O)[C@H](CC(C)C)NC(=O)[C@H](C(C)C)NC(=O)[C@H](CC(C)C)N(C)C(=O)[C@H](CC(C)C)NC(=O)[C@H](CCCc2ccccc2)NC(=O)[C@H]([C@@H](C)O)NC(=O)[C@H](C)N(C)C(=O)[C@H](CC(C)C)NC(=O)[C@H](C)N(C)C(=O)C[C@@H](C(=O)N2CCCCC2)NC1=O [DP-729] ([NMeA]L[NMeA]T[hhPhe]L[NMeL]VLID-Piperidide; lactam N-11)	47	54
CC[C@H](C)[C@@H]1NC(=O)[C@H](Cc2ccccc2)N(C)C(=O)[C@H](CCCc2ccccc2)NC(=O)[C@H](C(C)C)N(C)C(=O)[C@H](CC(C)C)N(C)C(=O)[C@H](CC(C)C)NC(=O)[C@@H](C)NC(=O)C[C@@H](C(=O)N2CCCCC2)NC(=O)[C@H]([C@@H](C)O)NC(=O)[C@H](C)NC(=O)[C@H](C)N(C)C1=O [DP-731] ([dA]L[NMeL][NMeV][hhPhe][NMeF]I[NMeA]ATD-Piperidide; lactam N-11)	480	53
CC(C)C[C@@H]1NC(=O)[C@@H]2CCCN2C(=O)[C@H](Cc2ccccc2)N(C)C(=O)[C@H](C)N(C)C(=O)[C@H]([C@@H](C)O)NC(=O)[C@@H](C(C)C)NC(=O)C[C@@H](C(=O)N2CCCCC2)NC(=O)[C@H](CC(C)C)N(C)C(=O)[C@H](C)N(C)C(=O)[C@H](CCc2ccccc2)NC(=O)[C@H](C(C)C)N(C)C1=O [DP-732] ([dV]T[NMeA][NMeF]PL[NMeV][hPhe][NMeA][NMeL]D-Piperidide; lactam N-11)	260	57
CC(C)C[C@@H]1NC(=O)[C@@H]2CCCN2C(=O)[C@H](Cc2ccccc2)N(C)C(=O)[C@H](C)N(C)C(=O)[C@H]([C@@H](C)O)NC(=O)[C@@H](C(C)C)NC(=O)C[C@@H](C(=O)N2CCCCC2)NC(=O)[C@H](CC(C)C)N(C)C(=O)[C@H](C)N(C)C(=O)[C@H](CCCc2ccccc2)NC(=O)[C@H](C(C)C)N(C)C1=O [DP-733] ([dV]T[NMeA][NMeF]PL[NMeV][hhPhe][NMeA][NMeL]D-Piperidide; lactam N-11)	260	97
CC(C)C[C@H]1C(=O)N(C)[C@@H](C(C)C)C(=O)N(C)[C@@H](C)C(=O)N[C@@H](CCc2ccccc2)C(=O)N(C)[C@@H](C)C(=O)N[C@H](C(=O)N2CCCCC2)CC(=O)N(C)[C@@H](C)C(=O)N[C@@H]([C@@H](C)O)C(=O)N(C)[C@@H](C)C(=O)N[C@@H](C)C(=O)N(C)[C@@H](Cc2ccccc2)C(=O)N1C [DP-734] ([NMeA]T[NMeA]A[NMeF][NMeL][NMeV][NMeA][hPhe][NMeA]D-Piperidide; lactam N-11)	160	84
CC(C)C[C@H]1C(=O)N(C)[C@@H](C(C)C)C(=O)N(C)[C@@H](C)C(=O)N[C@@H](CCCc2ccccc2)C(=O)N(C)[C@@H](C)C(=O)N[C@H](C(=O)N2CCCCC2)CC(=O)N(C)[C@@H](C)C(=O)N[C@@H]([C@@H](C)O)C(=O)N(C)[C@@H](C)C(=O)N[C@@H](C)C(=O)N(C)[C@@H](Cc2ccccc2)C(=O)N1C [DP-735] ([NMeA]T[NMeA]A[NMeF][NMeL][NMeV][NMeA][hhPhe][NMeA]D-Piperidide; lactam N-11)	210	88
CC(C)C[C@@H]1NC(=O)[C@H](C(C)C)N(C)C(=O)[C@H](CCc2ccccc2)NC(=O)CN(C)C(=O)[C@H]([C@@H](C)O)NC(=O)[C@H](C)N(C)C(=O)[C@H](CC(C)C)N(C)C(=O)[C@@H](C(C)C)NC(=O)C[C@@H](C(=O)N2CCCCC2)NC(=O)[C@H](C)NC(=O)[C@H](CC(C)C)N(C)C1=O [DP-736] ([dV][NMeL][NMeA]T[Sar][hPhe][NMeV]L[NMeL]AD-Piperidide; lactam N-11)	270	47
CC(C)C[C@@H]1NC(=O)[C@H](C(C)C)N(C)C(=O)[C@H](CCCc2ccccc2)NC(=O)CN(C)C(=O)[C@H]([C@@H](C)O)NC(=O)[C@H](C)N(C)C(=O)[C@H](CC(C)C)N(C)C(=O)[C@@H](C(C)C)NC(=O)C[C@@H](C(=O)N2CCCCC2)NC(=O)[C@H](C)NC(=O)[C@H](CC(C)C)N(C)C1=O [DP-737] ([dV][NMeL][NMeA]T[Sar][hhPhe][NMeV]L[NMeL]AD-Piperidide; lactam N-11)	300	45
CC(C)C[C@@H]1NC(=O)[C@H](CC(C)C)N(C)C(=O)C[C@@H](C(=O)N2CCCCC2)NC(=O)[C@H](C)N(C)C(=O)[C@H](CC(C)C)N(C)C(=O)[C@H]([C@@H](C)O)NC(=O)[C@H](Cc2ccccc2)N(C)C1=O [DP-738] ([NMeL]L[NMeF]T[NMeL][NMeA]D-Piperidide; lactam N-7)	220	221
CC(C)C[C@H]1C(=O)N[C@H](C(=O)N2CCCCC2)CC(=O)N[C@H](C)C(=O)N(C)[C@@H](C)C(=O)N(C)[C@@H](Cc2ccccc2)C(=O)N(C)[C@@H](CC(C)C)C(=O)N[C@@H]([C@@H](C)O)C(=O)N1C [DP-739] ([dA][NMeA][NMeF][NMeL]T[NMeL]D-Piperidide; lactam N-7)	180	164
CC(C)C[C@H]1C(=O)N[C@H](C(=O)N2CCCCC2)CC(=O)N[C@H](C)C(=O)N(C)[C@@H](CC(C)C)C(=O)N(C)[C@@H](Cc2ccccc2)C(=O)N(C)[C@@H](CC(C)C)C(=O)N[C@@H]([C@@H](C)O)C(=O)N1C [DP-740] ([dA][NMeL][NMeF][NMeL]T[NMeL]D-Piperidide; lactam N-7)	310	483
CC(C)C[C@@H]1NC(=O)[C@H](CC(C)C)N(C)C(=O)[C@H](C)N(C)C(=O)[C@H]([C@@H](C)O)NC(=O)[C@H](Cc2ccccc2)N(C)C(=O)[C@@H](C)NC(=O)C[C@@H](C(=O)N2CCCCC2)NC1=O [DP-741] ([dA][NMeF]T[NMeA][NMeL]LD-Piperidide; lactam N-7)	100	169
CC(C)C[C@@H]1NC(=O)[C@H]([C@@H](C)O)NC(=O)[C@H](CC(C)C)N(C)C(=O)[C@H](Cc2ccccc2)N(C)C(=O)CN(C)C(=O)[C@@H](C)NC(=O)C[C@@H](C(=O)N2CCCCC2)NC1=O [DP-742] ([dA][Sar][NMeF][NMeL]TLD-Piperidide; lactam N-7)	150	175
CC(C)C[C@H]1C(=O)N[C@@H](COC(C)(C)C)C(=O)N(C)[C@@H](Cc2ccccc2)C(=O)N(C)[C@@H](CC(C)C)C(=O)N[C@H](C(=O)N2CCCCC2)CC(=O)N(C)CC(=O)N[C@@H]([C@@H](C)O)C(=O)N1C [DP-743] ([Sar]T[NMeL]S(tBu)[NMeF][NMeL]D-Piperidide; lactam N-7)	160	126
CC(C)C[C@@H]1NC(=O)[C@H](CC(C)C)N(C)C(=O)CN(C)C(=O)[C@H]([C@@H](C)O)NC(=O)[C@H](C)N(C)C(=O)C[C@@H](C(=O)N2CCCCC2)NC(=O)[C@H](Cc2ccccc2)N(C)C1=O [DP-744] ([NMeA]T[Sar][NMeL]L[NMeF]D-Piperidide; lactam N-7)	120	61
CC(C)C[C@@H]1NC(=O)C[C@@H](C(=O)N2CCCCC2)NC(=O)[C@H]([C@@H](C)O)NC(=O)[C@H](CC(C)C)N(C)C(=O)CN(C)C(=O)[C@H](Cc2ccccc2)N(C)C(=O)[C@H](C)N(C)C1=O [DP-745] (L[NMeA][NMeF][Sar][NMeL]TD-Piperidide; lactam N-7)	170	232
